Assays:
HELA = assay: In vitro cytotoxic activity, SRB assay; conditions: for CC50: read-out: LC50, 48 hours exposure
Protocol: The finality of these assays is to interrupt the growth of a “in vitro” tumor cell culture by means a continued exhibition of the cells to the sample to be testing.
Most of the cell lines are obtained from American Type Culture Collection (ATCC) derived from different human cancer types.
Cells are maintained in RPMI 1640 10% FBS, supplemented with 0.1 g/l penicillin and 0.1 g/l streptomycin sulfate and then incubated at 37° C., 5% CO2 and 98% humidity. For the experiments, cells were harvested from subconfluent cultures using trypsin and resuspended in fresh medium before plating.
Cells are seeded in 96 well microtiter plates, at 5×10^3 cells per well in aliquots of 195 μl medium, and they are allowed to attach to the plate surface by growing in drug free medium for 18 hours. Afterward, samples are added in aliquots of 5 μl in a ranging from 10 to 10^−8 μg/ml, dissolved in DMSO/EtOH/PBS (0.5:0.5:99). After 48 hours exposure, the antitumor effect are measured by the SRB methodology: cells are fixed by adding 50 μl of cold 50% (wt/vol) trichloroacetic acid (TCA) and incubating for 60 minutes at 4° C. Plates are washed with deionized water and dried. One hundred μl of SRB solution (0.4% wt/vol in 1% acetic acid) is added to each microtiter well and incubated for 10 minutes at room temperature. Unbound SRB is removed by washing with 1% acetic acid. Plates are air dried and bound stain is solubilized with Tris buffer. Optical densities are read on a automated spectrophotometric plate reader at a single wavelength of 490 nm.
The values for mean +/− SD of data from triplicate wells are calculated. Some parameters for cellular responses can be calculated: GI=growth inhibition, TGI=total growth inhibition (cytostatic effect) and LC=cell killing (cytotoxic effect).

[1] = test system: NRK-52E, normal rat kidney cell; assay: In vitro toxicity to normal cells, MTS assay; assay type: cell-based; conditions: 24 h
Protocol: (§3) In order to assess the cytotoxicity of the drugs to normal cells, we used 96 well plates plated at a density of 5000 cells per well with normal cell lines maintained as per the directions of the ATCC: AML-12, normal mouse liver cells and NRK-52E, normal rat kidney cell. The cells in each plate were permitted to settle overnight before adding the test drug. To each well (100 μl medium) 10 μl of drug in media was added at varying concentrations (1×10^−10-0.01 mg/ml final concentration) and further incubated overnight at 37° C. with 5% CO2. All experiments were repeated at least 3 times and were assayed in duplicate. After 24 h the MTS assay (CellTiter 96 aqueous) was performed according to the manufacturer's (Promega) directions (for all cell types). Cell viability (mitochondrial activity) is determined via enzymatic conversion of the formazan substrate.

female mice = conditions: cited from earlier work
[2] = test system: AML-12, normal mouse liver cells; assay: In vitro toxicity to normal cells, MTS assay; conditions: read-out: ALM Liver IC50, 24 h
Protocol: as §3

[3] = In vivo MTD in athymic mice; conditions: mouse; for MTD at 5 days: 5 daily doses; for MTD: intravenous, single bolus
Protocol: (§1) The Maximum Tolerated Dose is determined in CD-1 and athymic mice (both genders) for each drug after single bolus administration and after 5 dayly doses. The results are given in table IV, there is no significant difference between the compounds 5 methylhexanoic KF and (4S)-methylhexanoic KF.

In vivo MTD in CD-1 mice = conditions: mouse, unit inferred; for MTD at 5 days: 5 daily doses; for MTD: intravenous, single bolus
Protocol: as §1

DU-145 = assay: In vitro cytotoxic activity, SRB assay; assay type: cell-based, human; conditions: DU-145, 48 hours exposure
From the text: (§2) Plates are washed with deionized water and dried.

IGROV = assay: In vitro cytotoxic activity, SRB assay; assay type: cell-based, human; conditions: 48 hours exposure
From the text: as §2

IGROV-ET = assay: In vitro cytotoxic activity, SRB assay; assay type: cell-based, human; conditions: 48 hours exposure
From the text: as §2

MEL-28 = assay: In vitro cytotoxic activity, SRB assay; assay type: cell-based, human; conditions: MEL-28, 48 hours exposure
From the text: as §2

A-549 = assay: In vitro cytotoxic activity, SRB assay; assay type: cell-based, human; conditions: A-549, 48 hours exposure; for CC50: read-out: LC50 (the source's name)
From the text: as §2

PANC-1 = assay: In vitro cytotoxic activity, SRB assay; assay type: cell-based, human; conditions: PANC-1, 48 hours exposure
From the text: as §2

HELA-APL = assay: In vitro cytotoxic activity, SRB assay; assay type: cell-based, human; conditions: 48 hours exposure; for CC50: read-out: LC50 (the source's name)
From the text: as §2

HT-29 = assay: In vitro cytotoxic activity, SRB assay; assay type: cell-based, human; conditions: HT-29, 48 hours exposure; for CC50: read-out: LC50 (the source's name)
From the text: as §2

K-562 = assay: In vitro cytotoxic activity, SRB assay; assay type: cell-based, human; conditions: K-562, 48 hours exposure
From the text: as §2

LN-caP = assay: In vitro cytotoxic activity, SRB assay; assay type: cell-based, human; conditions: 48 hours exposure
From the text: as §2

LOVO = assay: In vitro cytotoxic activity, SRB assay; assay type: cell-based, human; conditions: 48 hours exposure
From the text: as §2

SK-BR-3 = assay: In vitro cytotoxic activity, SRB assay; assay type: cell-based, human; conditions: SK-BR-3, 48 hours exposure; for CC50: read-out: LC50 (the source's name)
From the text: as §2

LOVO-DOX = assay: In vitro cytotoxic activity, SRB assay; assay type: cell-based, human; conditions: 48 hours exposure
From the text: as §2

[4] = female athymic mice, no unit printed in table (325 μg/kg/day), read-out: Female athymic mice MTD 5DD
[5] = female athymic mice, unit inferred, read-out: Female athymic mice MTD Bolus
[6] = male athymic mice, unit inferred, read-out: Male athymic mice MTD Bolus
[7] = male athymic mice, unit inferred, read-out: Male athymic mice MTD 5DD
[8] = female CD-1 mice, read-out: Female CD-1 mice MTD 5DD
[9] = female CD-1 mice, read-out: Female CD-1 mice MTD Bolus
[10] = male CD-1 mice, read-out: Male CD-1 mice MTD Bolus
[11] = male CD-1 mice, read-out: Male CD-1 mice MTD 5DD

In the case of C/C=C1\NC(=O)[C@H](Cc2ccccc2)NC(=O)[C@@H](C(C)C)NC(=O)[C@@H]([C@@H](C)CC)NC(=O)[C@H](NC(=O)[C@H](NC(=O)[C@H](CCCN)NC(=O)[C@H]2CCCN2C(=O)[C@H](NC(=O)[C@@H](NC(=O)[C@@H](NC(=O)[C@H](NC(=O)CCCC(C)C)C(C)C)[C@@H](C)O)C(C)C)C(C)C)[C@@H](C)CC)[C@@H](C)OC(=O)[C@H](C(C)C)NC1=O [5-methylhexanoic KF, reference compound], the GI50 (HELA; 48 hours exposure) is reported as 839 nM, the CC50 (HELA) is reported as 4260 nM and the IC50 [1] is reported as 2700 nM. The “tolerability of repeated administration” value (female mice; 280 μg/kg, once daily times five schedule) was “without any apparent evidence of acute toxicity”, the “maximum tolerated dose (MTD)” value (female mice; female mice, single bolus iv injection) was 0.28 mg/kg and the IC50 [2] was 3400 nM. For the same molecule, the MTD at 5 days [3, 4] was 0.325 mg/kg, the MTD [3, 5] was 0.325 mg/kg and the MTD [3, 6] was 0.35 mg/kg. It also gave an MTD at 5 days [3, 7] of 0.35 mg/kg, an MTD at 5 days (In vivo MTD in CD-1 mice; [8]) of 0.175 to 0.35 mg/kg and an MTD (In vivo MTD in CD-1 mice; [9]) of 0.2 mg/kg. It also gave an MTD (In vivo MTD in CD-1 mice; [10]) of 0.3 mg/kg, an MTD at 5 days (In vivo MTD in CD-1 mice; [11]) of 0.175 to 0.35 mg/kg and a GI50 (DU-145) of 751 nM. The LC50 (DU-145) was 3600 nM, the GI50 (IGROV) was 420 nM and the LC50 (IGROV) was 3800 nM. The GI50 (IGROV-ET) was 447 nM, the LC50 (IGROV-ET) was 3090 nM and the GI50 (MEL-28) was 690 nM. For the same molecule, the LC50 (MEL-28) was 3550 nM, the GI50 (A-549) was 866 nM and the CC50 (A-549) was 3780 nM. It also gave a GI50 (PANC-1) of 1380 nM, an LC50 (PANC-1) of 6070 nM and a GI50 (HELA-APL) of 1060 nM. For the same molecule, the CC50 (HELA-APL) was 4430 nM, the GI50 (HT-29) was 141 nM and the CC50 (HT-29) was 562 nM. For the same molecule, the GI50 (K-562) was 1540 nM, the LC50 (50% lethal concentration) (K-562) was 5660 nM and the GI50 (LN-caP) was 961 nM. The LC50 (50% lethal concentration) (LN-caP) was 5570 nM, the GI50 (LOVO) was 120 nM and the LC50 (50% lethal concentration) (LOVO) was 428 nM. It also gave a GI50 (SK-BR-3) of 398 nM, a CC50 (SK-BR-3) of 6770 nM and a GI50 (LOVO-DOX) of 162 nM. It also gave an LC50 (LOVO-DOX) of 620 nM.
C/C=C1\NC(=O)[C@H](Cc2ccccc2)NC(=O)[C@@H](C(C)C)NC(=O)[C@@H]([C@@H](C)CC)NC(=O)[C@H](NC(=O)[C@H](NC(=O)[C@H](CCCN)NC(=O)[C@H]2CCCN2C(=O)[C@H](NC(=O)[C@@H](NC(=O)[C@@H](NC(=O)[C@H](NC(=O)CC[C@H](C)CC)C(C)C)[C@@H](C)O)C(C)C)C(C)C)[C@@H](C)CC)[C@@H](C)OC(=O)[C@H](C(C)C)NC1=O [(4R)-methylhexanoic KF] gave a GI50 (HELA; 48 hours exposure) of 1050 nM, a TGI (HELA; 48 hours exposure) of 1.93E−06 Molar and a CC50 (HELA) of 3550 nM. For the same molecule, the GI50 (DU-145) was 1200 nM, the LC50 (DU-145) was 3820 nM and the TGI (DU-145) was 2.14E−06 Molar. For the same molecule, the GI50 (IGROV) was 941 nM, the LC50 (IGROV) was 3500 nM and the TGI (IGROV) was 1.81E−06 Molar. For the same molecule, the GI50 (IGROV-ET) was 805 nM, the LC50 (IGROV-ET) was 3260 nM and the TGI (IGROV-ET) was 1.62E−06 Molar. It also gave a GI50 (MEL-28) of 1140 nM, an LC50 (MEL-28) of 3800 nM and a TGI (MEL-28) of 2.09E−06 Molar. It also gave a GI50 (A-549) of 1200 nM, a TGI (A-549) of 2.26E−06 Molar and a CC50 (A-549) of 4240 nM. It also gave a GI50 (PANC-1) of 4700 nM, an LC50 (PANC-1) of 4240 nM and a TGI (PANC-1) of 4.24E−06 Molar. The GI50 (HELA-APL) was 1560 nM, the TGI (HELA-APL) was 3.47E−06 Molar and the CC50 (HELA-APL) was 6770 nM. The GI50 (HT-29) was 738 nM, the TGI (HT-29) was 1.54E−06 Molar and the CC50 (HT-29) was 3220 nM. For the same molecule, the GI50 (K-562) was 3730 nM, the LC50 (50% lethal concentration) (K-562) was 6770 nM and the TGI (K-562) was 6.77E−06 Molar. The GI50 (LN-caP) was 1500 nM, the LC50 (50% lethal concentration) (LN-caP) was 4040 nM and the TGI (LN-caP) was 2.46E−06 Molar. For the same molecule, the GI50 (LOVO) was 248 nM, the LC50 (50% lethal concentration) (LOVO) was 2280 nM and the TGI (LOVO) was 7.78E−07 Molar. It also gave a GI50 (SK-BR-3) of 1250 nM, a TGI (SK-BR-3) of 2.20E−06 Molar and a CC50 (SK-BR-3) of 3860 nM. It also gave a GI50 (LOVO-DOX) of 288 nM, an LC50 (LOVO-DOX) of 2190 nM and a TGI (LOVO-DOX) of 7.71E−07 Molar.
Molecule C/C=C1\NC(=O)[C@H](Cc2ccccc2)NC(=O)[C@@H](C(C)C)NC(=O)[C@@H]([C@@H](C)CC)NC(=O)[C@H](NC(=O)[C@H](NC(=O)[C@H](CCCN)NC(=O)[C@H]2CCCN2C(=O)[C@H](NC(=O)[C@@H](NC(=O)[C@@H](NC(=O)[C@H](NC(=O)CC[C@@H](C)CC)C(C)C)[C@@H](C)O)C(C)C)C(C)C)[C@@H](C)CC)[C@@H](C)OC(=O)[C@H](C(C)C)NC1=O [(4S)-methylhexanoic KF, 4(S)-MeHex-D-Val-L-Thr-L-VaI-D-Val-D-Pro-L-Orn-D-allo-Ile-cyclo(D-allo-Thr-D-allo-Ile-D-Val-L-Phe-Z-Dhb-L-Val)] has a GI50 (HELA; 48 hours exposure) of 1180 nM, a CC50 (HELA) of 4970 nM and an IC50 [1] of 2700 nM. For the same molecule, the IC50 [2] was 5400 nM, the MTD at 5 days [3, 4] was 0.325 mg/kg and the MTD [3, 5] was 0.325 mg/kg. It also gave an MTD [3, 6] of 0.35 mg/kg, an MTD at 5 days [3, 7] of 0.35 mg/kg and an MTD at 5 days (In vivo MTD in CD-1 mice; [8]) of 0.175 to 0.35 mg/kg. For the same molecule, the MTD (In vivo MTD in CD-1 mice; [9]) was 0.2 mg/kg, the MTD (In vivo MTD in CD-1 mice; [10]) was 0.3 mg/kg and the MTD at 5 days (In vivo MTD in CD-1 mice; [11]) was 0.175 to 0.35 mg/kg. It also gave a GI50 (DU-145) of 237 nM, an LC50 (DU-145) of 2490 nM and a GI50 (IGROV) of 292 nM. The LC50 (IGROV) was 2620 nM, the GI50 (IGROV-ET) was 225 nM and the LC50 (IGROV-ET) was 2820 nM. The GI50 (MEL-28) was 1430 nM, the LC50 (MEL-28) was 4720 nM and the GI50 (A-549) was 267 nM. For the same molecule, the CC50 (A-549) was 3090 nM, the GI50 (PANC-1) was 6770 nM and the LC50 (PANC-1) was 6770 nM. For the same molecule, the GI50 (HELA-APL) was 1040 nM, the CC50 (HELA-APL) was 4390 nM and the GI50 (HT-29) was 301 nM. It also gave a CC50 (HT-29) of 2710 nM, a GI50 (K-562) of 2520 nM and an LC50 (50% lethal concentration) (K-562) of 6770 nM. It also gave a GI50 (LN-caP) of 1120 nM, an LC50 (50% lethal concentration) (LN-caP) of 5930 nM and a GI50 (LOVO) of 163 nM. For the same molecule, the LC50 (50% lethal concentration) (LOVO) was 580 nM, the GI50 (SK-BR-3) was 181 nM and the CC50 (SK-BR-3) was 606 nM. The GI50 (LOVO-DOX) was 157 nM and the LC50 (LOVO-DOX) was 677 nM.

— patent US7507708B2, “Antitumoral compounds” (Pharma Mar, S.A.U., priority 2003, dated 2009)
